These results are taken from patent US6884575B2, “Phosphoprotein target for insulin and its antagonists” (Protemix Corporation Limited, priority 2001, dated 2005).

Assay [1] relates to P20. The assay can be described thus: Phosphorylation of P20 isoforms in 32P-labelled rat EDL muscle strips (2-DE, phosphorimaging). It is filed as cell-based. The following applies: for radioactivity of P20 isoform S1 / radioactivity of P20 isoform S2 / radioactivity of P20 isoform S3: hormones 50 nM, 30 min, n=4. On the procedure: Rat extensor digitorum longus (EDL) muscle strips were prepared from 18 h-fasted rats. Dissection and isolation of muscles were carried out under anaesthesia with pentobarbital (5-7 mg/100 g of body weight, intraperitoneally) as described previously (23). Each muscle was split into three ˜1 mm width strips. Muscle strips were pre-incubated in a shaking incubator at 30° C. for 1 h in 5 ml of Dulbecco's Modified Eagle's medium without sodium phosphate. All incubation media were gassed with a mixture of 95% O2 and 5% CO2. The muscle strips were subsequently transferred to similar flasks containing identical medium plus 0.25 mCi/ml [^32P]-orthophosphate and incubated for a further 4 h to equilibrate the internal ATP pool (23, 24). Human insulin, rat amylin, epinephrine or CGRP were then added to the incubation media for 30 min at stated final concentrations. Reactions were terminated by freezing muscle strips in liquid nitrogen immediately after incubation. Muscle strips were then weighed and stored at −80° C. until further analysis.
Muscle strips were homogenized in 2-DE lysis buffer (9M urea, 2% v/v triton X-100, 2% v/v pharmalyte pH 3-10, 200 mM DTT, 8 mM PMSF) for 5 min on ice. The lysates were briefly sonicated and microcentrifuged at 12,000 rpm for 10 min to remove debris. Protein concentrations were determined by the Bradford method and radioactivity was measured by liquid scintillation counting. ^32P-labelled lysates with equivalent amounts of radioactivity were isoelectrically focused on IPG Drystrip pH 4-7 and pH 3-10 Linear gels using a multiphor RII electrophoresis system according to the manufacturer's instructions. Second dimensional SDS-PAGE was carried out using ExcelGel™ precast 12-14% acrylamide gradient gels. After electrophoresis the gels were fixed in 10% glacial acetic acid, 40% ethanol and the proteins visualized by phosphorimaging or autoradiography.
Autoradiography films were scanned and digitised using a Sharp JX-325 scanner, and protein spots detected, quantitated and analysed using the Melanie II software package, ver. 2.2 (Biorad). The detection parameters were: smooth 2, Laplacian threshold 3, partials threshold 1, saturation 90, peakedness increase 100 and minimum perimeter 10. The matching of multiple features to one feature was not allowed. The pixel value is the optical density (OD). Features were calculated as a percentage of the sum of VOL (the feature's volume, i.e., the integration of OD over the feature's area) for all features on the gel. The radioactivity of protein spots was also detected by a phosphorimager and analysed by MacBAS v2.5 software. […] All the results presented are based on at least three independent experiments. Statistical analysis was performed using the t-test (paired two sample).

For the next assay, the system named is Male Wistar rats. It is filed as in vivo, rat. On the procedure:
(§1) All experimental protocols were approved by the Institutional Animal Ethics Committee. Male Wistar rats were injected with dexamethasone (3.1 mg/kg/day, intraperitoneally) for 7 days. The daily weights of rats in both control and dexamethasone-treated groups were monitored. […] Rats were fasted for 18 h prior to each experiment and were killed by cervical dislocation. Blood was obtained by cardiac puncture from anesthetized animals. The mean blood glucose concentration was 5.4±0.2 mM and 10.8±0.6 mM in control and dexamethasone-treated rats, respectively, as measured with a YSI 2300STAT glucose/lactate analyser (Yellow Springs Instruments). […] Insulin and amylin concentrations in the blood of normal and insulin resistant rats were determined as described (17). Rats with insulin resistance induced by chronic high fat feeding were generated as described previously (26).

Another assay deals with skeletal muscle. The assay can be described thus: In vitro [14C(U)]-D-glucose incorporation assay in skeletal muscle (insulin-stimulated glycogen synthesis). It is filed as cell-based, rat. The settings on record: muscle of dexamethasone-treated rats. On the procedure:
as §1

For assay [2], the system named is P20. Briefly: P20 mRNA (northern blot) and protein (western blot) in EDL muscle. It is filed as cell-based, rat. The following applies: dexamethasone-injected rats or strips with 50 nM amylin 30 min. On the procedure:
About 50 μg proteins from liver, heart, epididymal fat pad, aortic smooth muscle, EDL muscle, soleus muscle tissues and whole blood obtained from 18 h-fasted male Wistar rats were separated by SDS-PAGE and subsequently transferred to nitrocellulose membranes. The membranes were blocked over night at 4° C. and then incubated with rabbit anti-P20 polyclonal antibody (1:1000) for 2 h at room temperature. After incubation with streptavidin-biotinylated horseradish peroxidase-conjugated secondary antibody for another 1 h at room temperature, the proteins immunoreactive to the primary antibody were visualised by enhanced chemiluminescence (ECL) detection according to the manufacturer's instructions.
Total cellular RNA was isolated from EDL muscle of 18 h-fasted control and dexamethasone-treated rats using TRIZOL reagent. 15 μg of RNA from each sample was separated by 1.5% agarose-formaldehyde gel electrophoresis and subsequently transferred to Hybond-N^+ nylon membranes by capillary blotting in 20×SSC. The P20 cDNA probe was labelled with ^32P-dCTP using a random primer labelling system. […] Membranes were then washed, analysed using a phosphorimager and quantitated by MacBAS v2.5 software. For comparison, RNA samples from EDL muscle strips treated with or without 50 nM amylin were also analysed in parallel.
A general note: In western blotting, separated proteins are transferred to a membrane and probed.

The test system of a further assay is L6 myotubes. The assay can be described thus: 2-deoxyglucose uptake in L6 myotubes. It is filed as cell-based. On the procedure:
L6 myoblast cells were transfected with pCXN2-GLUT4myc (27), or co-transfected with pCXN2-GLUT4myc and pcDNA.P20, using Lipofectamine Plus reagent according to the manufacturer's instructions. Stable transfectants were selected in medium containing the neomycin analogue G418 at 400 μg/ml. At 10 days after transfection, the clones were selected using sterilised steel rings and expanded separately in the presence of G418. Clones that express P20 and myc-tagged GLUT4 were chosen by western blotting and used for further experiments.
L6 cells stably overexpressing myc-tagged GLUT4, or myc-tagged GLUT4 plus P20, were grown in 6-well plates and differentiated into myotubes in DMEM containing 2% fetal bovine serum for 7 days. The cells were deprived of serum for 16 h prior to experiments. For glucose uptake assays, L6 myotubes were rinsed three times with Krebs-Henseleit buffer (KHB) and incubated in KHB with or without hormones (insulin or insulin plus amylin) at the indicated concentrations for 15 min at 37° C. Carrier-mediated glucose uptake of 10 μM 2-deoxy-D-[^3H] glucose in the above solution was measured for 15 min at 37° C. This was followed by rinsing the cells three times with ice-cold PBS and cell disruption with 0.1 N NaOH. The associated radioactivity was determined by liquid scintillation counting. The protein concentration was measured with a BCA protein quantitation kit (PIERCE). The nonspecific uptake was determined in the presence of 10 μM cytochalasin B and subtracted from each value.

Setting [3] is: EDL strips from dexamethasone-treated rats, basal = no hormone.
Setting [4] is: EDL strips from non-diabetic control rats, mean ± SD.
The mark [5] stands for this setting: cells overexpressing both P20 and GLUT4myc vs GLUT4myc alone, n=4.

Values joined by “and” are separate entries in the source; they are usually repeats but may differ in a detail not shown here. Equal values may be shown once. Ends that are not written are not given here.

With `C[C@@H]1C[C@H]2[C@@H]3CCC4=CC(=O)C=C[C@]4(C)[C@@]3(F)[C@@H](O)C[C@]2(C)[C@@]1(O)C(=O)CO` [Dexamethasone, dexamethasone], in the assay on P20 [1] (setting [3]), the “radioactivity of P20 isoform S1” value is listed as 439 PSL, the “radioactivity of P20 isoform S2” value was 102 PSL and the “radioactivity of P20 isoform S3” value is reported as 98.6 PSL. In addition, the “signals of both S2 and S3, fold higher than control rats” value in the assay on P20 [1] (without hormone stimulation, dexamethasone 3.1 mg/kg/day i.p. for 7 days) is on record as “about 5 fold”. Besides, the “mean blood glucose concentration” value in the assay with Male Wistar rats (3.1 mg/kg/day i.p. for 7 days, 18 h fasted) worked out at 10.8 ± 0.6 mM. In the assay with Male Wistar rats (dexamethasone-treated rats), the “fasted basal plasma concentration of amylin” value amounted to 144±17 pmol/1 and the “fasted basal plasma concentration of insulin” value is on record as 789±94 pmol/1. For the same compound, the “reduction in rates of insulin-stimulated glycogen synthesis” value with skeletal muscle is given as “over 95%”.
For the compound “Amylin: Rat amylin purchased from Bachem; hormone co-secreted with insulin from pancreatic islet β-cells (KCNTATCATQRLANFLVRSSNNLGPVLPPTNVGSNTY; ends and bridges not checked; cysteine pairing not given here; UniProt P12969 38-74, looked up)”, the “decrease of insulin-induced phosphorylation of S1” value with P20 [1] (50 nM insulin plus 50 nM amylin vs 50 nM insulin alone, normal rats) was 49%. Further, in the assay on P20 [1] (setting [3]), the “radioactivity of P20 isoform S1” value stood at 181 PSL, the “radioactivity of P20 isoform S2” value is recorded as 280 PSL and the “radioactivity of P20 isoform S3” value was found to be 208 PSL. Moreover, in the assay with P20 [1] (setting [4]), the “radioactivity of P20 isoform S1” value came to 191 ± 9 PSL, the “radioactivity of P20 isoform S2” value was determined as 289 ± 20 PSL and the “radioactivity of P20 isoform S3” value is 226 ± 17 PSL. Also, in the assay on P20 [2], the “P20 mRNA level and protein abundance” value was “not changed”. For the same compound, the “decrease of insulin-stimulated glucose uptake” value in the assay on L6 myotubes (GLUT4myc alone, 50 nM insulin plus 50 nM amylin) is given as 28%. For the same compound, the “increase of the inhibitory effect of amylin by P20 overexpression” value in the assay with L6 myotubes (setting [5]) worked out at 24±2%.
As for “Insulin: Human insulin was Actrapid from Novo Nordisk”, in the assay with P20 [1] (50 nM each, normal rats), the “effect on phosphorylation of S2 and S3 induced by epinephrine and CGRP” value was “no effect”. In addition, the “decrease of amylin-evoked phosphorylation of S3” value with P20 [1] (50 nM insulin plus 50 nM amylin vs amylin alone, normal rats) was 73% and ~74%. Moreover, in the assay with P20 [1] (setting [3]), the “radioactivity of P20 isoform S1” value came to 843 PSL, the “radioactivity of P20 isoform S2” value was 96.6 PSL and the “radioactivity of P20 isoform S3” value is reported as 92 PSL. Moreover, in the assay on P20 [1] (setting [4]), the “radioactivity of P20 isoform S1” value is given as 831 ± 40 PSL, the “radioactivity of P20 isoform S2” value was found to be 20.3 ± 3.4 PSL and the “radioactivity of P20 isoform S3” value is on record as 13.3 ± 1.3 PSL. Besides, in the assay on P20 [1] (diabetic (dexamethasone-treated) rats), the “effect on amylin-evoked phosphorylation of S2 and S3” value is “little affected”. Besides, the “decrease of insulin-stimulated glucose uptake by P20 overexpression” value in the assay with L6 myotubes (setting [5]) came to 41±3%. In the assay on L6 myotubes (myotubes overexpressing GLUT4myc alone, 50 nM insulin), the “increase of 2-deoxyglucose uptake over basal level” value amounted to 2.94±0.31 fold.
